# Laboratory results as given in ChEMBL document CHEMBL4431306, “Gamma Secretase Modulators: New Alzheimer's Drugs on the Horizon?” (J Med Chem, 2016).
# Key:
# Gamma-secretase [1] = test: Modulation of gamma-secretase in human SH-SY5Y cells expressing human APP751 assessed as reduction in amyloid beta 42 production after 18 to 22 hrs by sandwich ELISA; format: cell-based
# Mus musculus [2] = test: Reduction in amyloid beta 42 levels in Tg 2576 mouse brain at 50 to 100 mg/kg administered via oral gavage for 3 days by LC-MS/MS analysis; format: functional
# Gamma-secretase [3] = test: Modulation of gamma-secretase (unknown origin) assessed as reduction in amyloid beta 42 production by ELISA; format: protein-complex assay, Homo sapiens
# Gamma-secretase [4] = test: Modulation of gamma-secretase in human H4 cells expressing human APP751 assessed as reduction in amyloid beta 42 production after 16 to 18 hrs by sandwich ELISA; format: cell-based
# Gamma-secretase [5] = test: Modulation of gamma-secretase in human H4 cells expressing APP Swedish mutant assessed as inhibition of amyloid beta (1 to 42 residues) production; format: cell-based
# Mus musculus [6] = test: Reduction in amyloid beta 42 levels in mouse brain at 30 mg/kg, po administered as single dose measured 4 hrs post dose by electrochemiluminescence assay; format: functional
# Gamma-secretase [7] = test: Modulation of gamma-secretase in human SK-N-BE(2) cells expressing human APP695 assessed as reduction in amyloid beta 42 production incubated overnight by sandwich immunoassay; format: cell-based
# Mus musculus [8] = test: Reduction in amyloid beta 42 levels in mouse brain at 10 mg/kg, po administered as single dose measured 4 hrs post dose by electrochemiluminescence assay; format: functional
# Gamma-secretase [9] = test: Modulation of gamma-secretase in human SH-SY5Y cells expressing human APP751 assessed as reduction in amyloid beta 42 production after 24 hrs by sandwich ELISA; format: cell-based
# Gamma-secretase [10] = test: Modulation of gamma-secretase in human H4 cells expressing human APP695 assessed as reduction in amyloid beta 42 production after 22 hrs by electrochemiluminescence assay; format: cell-based
# Mus musculus [11] = test: Increase in amyloid beta 38 levels in mouse brain at 30 mg/kg, po administered as single dose measured 4 hrs post dose by ELISA; format: functional
# Mus musculus [12] = test: Reduction in amyloid beta 42 levels in mouse brain at 30 mg/kg, po administered as single dose measured 4 hrs post dose by ELISA; format: functional
# Gamma-secretase [13] = test: Modulation of gamma-secretase in human SH-SY5Y cells expressing human APP751 assessed as reduction in amyloid beta 42 production after 16 to 18 hrs by ELISA; format: cell-based
# Mus musculus [14] = test: Reduction in amyloid beta (1 to 42 residues) AUC in triple transgenic mouse brain at 30 mg/kg administered via oral gavage measured up to 24 hrs by UPLC-MS-MS analysis; format: functional
# Rattus norvegicus = test: Reduction in amyloid beta (1 to 42 residues) AUC in Sprague-Dawley rat brain at 10 mg/kg administered via oral gavage measured up to 24 hrs by UPLC-MS-MS analysis; format: functional
# Mus musculus [15] = test: Reduction in amyloid beta (1 to 42 residues) AUC in triple transgenic mouse brain at 100 mg/kg administered via oral gavage measured up to 24 hrs by UPLC-MS-MS analysis; format: functional
# Homo sapiens [16] = test: Reduction in amyloid beta 42 levels in human plasma at 250 mg, po administered as single dose measured over 24 hrs post dose by sandwich enzyme immunoassay; format: functional
# Homo sapiens [17] = test: Reduction in amyloid beta (1 to 42 residues) […] in human plasma at 250 mg, po administered as single dose measured up to 24 hrs relative to control; format: functional
# Homo sapiens [18] = organism: Homo sapiens; test: Modulation of gamma-secretase in human H4 cells expressing human APP695 assessed as inhibition of amyloid beta 42 production at 10 uM after 16 hrs by sandwich ELISA; format: functional
# Gamma-secretase [19] = test: Modulation of gamma-secretase in human H4 cells expressing human APP695 assessed as inhibition of amyloid beta 42 production after 16 hrs by sandwich ELISA; format: cell-based
smiles,measurement,setting,value
CCN(CC)c1ccc(Nc2nc(-c3ccc(-n4ccnc4)cc3)cs2)c(C)c1,EC50,Gamma-secretase [1],1500 nM
CCc1cc(Nc2nc(-c3ccc(-n4cnc(C)c4)c(F)c3)cs2)c(C)cc1C,inhibition (INH),Mus musculus [2],30 - 40%
CC(=O)O[C@@H]([C@H]1C[C@@H](C)C2=C(O1)[C@H](O)[C@@]1(C)[C@@H]3CC[C@H]4C(C)(C)[C@@H](O[C@@H]5OC[C@@H](O)[C@H](O)[C@H]5O)CC[C@@]45C[C@@]35CC[C@]21C)C(C)(C)O,EC50,Gamma-secretase [3],100 nM
COc1cc(N2CCC(Nc3ncc4c(n3)N(c3ccccc3)CCO4)CC2)ccn1,EC50,Gamma-secretase [4],25 nM
CNc1nc(Cc2ccccc2)nc(Nc2ccc(-n3cnc(C)c3)c(OC)c2)n1,EC50,Gamma-secretase [5],29 nM
CCn1cc(C(C)N2C(=O)c3ccc(-n4cnc(C)c4)c(=O)n3C[C@H]2C)c2cc(Cl)c(F)cc21 (some centres not stated),inhibition in vivo at 30 mg/kg,Mus musculus [6],61%
same,EC50,Gamma-secretase [7],10 nM
Cc1cn(-c2ccc3n(c2=O)C[C@@H](C)N(C(C)c2coc4cc(F)c(C(F)(F)F)cc24)C3=O)cn1 (some centres not stated),EC50,Gamma-secretase [7],6 nM
same,inhibition in vivo at 10 mg/kg,Mus musculus [8],42%
CCn1nc2c(c1Nc1nc(-c3ccc(-n4cnc(C)c4)cc3)cs1)CCCC2,EC50,Gamma-secretase [9],347 nM
CCn1nc2c(c1Nc1nc(-c3ccc(-n4cnc(C)c4)nc3)cs1)CCCC2,EC50,Gamma-secretase [9],1300 nM
CCN1C(=O)C2CCCCCN2c2nc(Nc3ccc(-n4cnc(C)c4)c(OC)c3)ncc21 (configuration not stated),EC50,Gamma-secretase [10],46 nM
COc1cc2[nH]c(-c3cn4c(n3)C(c3cccc(F)c3C)OCC4)cc2cc1C#N (configuration not stated),EC50,Gamma-secretase [7],20 nM
same,Activity,Mus musculus [11],40%
same,inhibition in vivo at 30 mg/kg,Mus musculus [12],66%
CCn1nc2c(c1Nc1nc(-c3ccc(-n4cnc(C)c4)c(OC)n3)cs1)CCCC2,EC50,Gamma-secretase [9],30 nM
Cc1cn(-c2ccc3n(c2=O)CC2CCC(Cc4cc(C(F)(F)F)cc(C(F)(F)F)c4)N2C3=O)cn1 (configuration not stated),EC50,Gamma-secretase [7],50 nM
COc1cc2[nH]c(-c3cn4c(n3)C(c3ccccc3C(F)(F)F)OCC4)cc2cc1C#N (configuration not stated),EC50,Gamma-secretase [7],45 nM
same,Activity,Mus musculus [11],41%
same,inhibition in vivo at 30 mg/kg,Mus musculus [12],57%
COc1cc(Nc2ncc3c(n2)N(c2cc(F)cc(F)c2)CCO3)ccc1-n1cnc(C)c1,EC50,Gamma-secretase [4],14 nM
COc1cc(Nc2ncc3c(n2)N(C)C2(CCCC2)C(=O)N3CC(F)(F)F)ccc1-n1cnc(C)c1,EC50,Gamma-secretase [10],22 nM
COc1cc(Nc2ncc3c(n2)N(C)C2(CC2)CO3)ccc1-n1cnc(C)c1,EC50,Gamma-secretase [4],49 nM
COc1cc(N2CCC(Nc3ncc4c(n3)N(CC(F)(F)F)CCO4)CC2)ccn1,EC50,Gamma-secretase [4],105 nM
COc1cc2[nH]c(-c3cn4c(n3)C(c3ccccc3Cl)OCC4)cc2cc1C#N (configuration not stated),EC50,Gamma-secretase [7],21 nM
same,Activity,Mus musculus [11],10%
same,inhibition in vivo at 30 mg/kg,Mus musculus [12],73%
COc1cc(-c2csc(N3CCCn4nc5c(c43)CCCC5)n2)ccc1-n1cnc(C)c1,EC50,Gamma-secretase [13],6 nM
COc1cc(Nc2ncc3c(n2)N(c2ccccc2)CCO3)ccc1-n1cnc(C)c1,EC50,Gamma-secretase [4],39 nM
Cc1cc([C@@H]2CC[C@@H](Nc3ncc4c(n3)N(c3ccccc3Cl)CCO4)CO2)ccn1,EC50,Gamma-secretase [4],41 nM
COc1cc(Nc2nc3c(c(N4CCCCC4)n2)SC2(CCC2)C3)ccc1-n1cnc(C)c1,EC50,Gamma-secretase [10],90 nM
COc1cc(Nc2ncc3c(n2)N2CCCC2CO3)ccc1-n1cnc(C)c1 (configuration not stated),EC50,Gamma-secretase [4],71 nM
COc1cc(Nc2nc3n(n2)CCCC[C@H]3c2ccc(F)cc2)ccc1-n1cnc(C)c1,inhibition in vivo at 30 mg/kg,Mus musculus [14],31%
same,inhibition in vivo at 10 mg/kg,Rattus norvegicus,47%
same,inhibition in vivo at 100 mg/kg,Mus musculus [15],55%
same,EC50,Gamma-secretase [5],6 nM
COc1cc(Nc2ncc3c(n2)N(CC(F)(F)F)CCO3)ccc1-n1cnc(C)c1,EC50,Gamma-secretase [4],101 nM
COc1cc(Nc2ncc3c(n2)N(C)[C@@H](c2ccccc2)CO3)ccc1-n1cnc(C)c1,EC50,Gamma-secretase [4],16 nM
COc1nc(/C=C/c2nc3n(n2)CCC[C@H]3c2ccccc2C(F)(F)F)ccc1-n1cnc(C)c1 [E-2212],inhibition (INH),Homo sapiens [16],54%
same,inhibition (INH),Homo sapiens [17],44%
C[C@H](CCC(=O)O)[C@H]1CC[C@H]2[C@@H]3CC[C@@H]4C[C@H](O)CC[C@]4(C)[C@H]3CC[C@]12C [LITHOCHOLIC ACID],inhibition at 10 µM,Homo sapiens [18],62%
C[C@H](CCC(=O)O)[C@H]1CC[C@H]2[C@@H]3CC[C@@H]4CCCC[C@]4(C)[C@H]3CC[C@]12C [URSOCHOLANIC ACID],EC50,Gamma-secretase [19],5.7 µM
